Results: patent US4320127A, “Pyrido[3,2-e]-as-triazines” (Edyt Gyogyszervegyeszeti Gyar, priority 1979, dated 1982)
Where a name gives a salt, the structure may show the parent alone. Read-outs that look alike come from different tables or passages of the source.

How the values were obtained:
[1] = tested on: carrageenin oedema of the hind paw; test: antiphlogistic (oedema-inhibiting) effect, carrageenin paw oedema; assay type: in vivo, rats; details: for ED30: Rattus norvegicus; for Therapeutical index: carrageenin oedema
Experimental: The antiphlogistic (oedema-inhibiting) effect was tested on rats. 0.1 ml of a 1% carrageenin solution were injected into the plantar region of one of the hind paws. The volume of the paw was measured just before and 3 hours after the introduction of oedema-provoking agent by a mercury plethysmometer.

[2] = tested on: tetrabenazine; test: tetrabenazine antagonism (Brodie et al.); assay type: in vivo; details: mice; for ED50: Mus musculus, oral administration; for Therapeutic index: tetrabenazine antagonism, oral
[3] = tested on: reserpine; test: reserpine antagonism (Brodie et al.); assay type: in vivo; details: mice; for ED50: Mus musculus, oral administration; for Therapeutic index: reserpine antagonism, oral
[4] = tested on: motility of mice; test: effect on the motility of mice in a Dews apparatus (Borsy et al.); details: for ED50: Mus musculus, po; for Therapeutical index: motility, mice, oral
Excerpt: The effect of the compounds on the motility of mice was orally tested in a Dews apparatus, by the method of Borsy et al. (Arch. Int. Pharmacodyn. 124 1-2 (1960). The ED50 values and the therapeutical indices are listed in Table 2.

[5] = tested on: hexobarbital-narcosis; test: effect on the duration of hexobarbital-narcosis (Kaergaard); details: for ED50: Mus musculus, po; for Therapeutical index: hexobarbital-narcosis, mice, oral
Excerpt: The effect of the compounds exerted on the duration of hexobarbital-narcosis was orally tested on mice by the method of Kaergaard (Arch. Int. Pharmacodyn. 2 170 (1967)).

[6] = in vivo; details: mouse
Experimental: The toxicity of the new compounds according to the invention was determined on mice after oral administration.

[7] = tested on: acetic acid writhing; test: analgesic effect, acetic acid writhing test; assay type: in vivo; details: mice, oral; for ED50: Mus musculus, analgesic
Experimental: The analgesic effect of the new compounds was determined on mice at oral administration by the acetic acid writhing test.

[8] = dosage inhibiting the inflammation by 30%, rats, 0.1 ml of 1% carrageenin, 3 hours, read-out: ED30

Structure (SMILES) | ED30 ([1]; 3 h) [mg/kg] | ED50 [2] [mg/kg] | Therapeutic index [2] | ED50 [3] [mg/kg] | Therapeutic index [3] | ED30 [1, 8] [mg/kg] | Therapeutical index ([1]; rats) | ED50 [4] [mg/kg] | Therapeutical index [4] | ED50 [5] [mg/kg] | Therapeutical index [5] | LD50 ([6]; mice, oral administration) [mg/kg] | ED50 [7] [mg/kg] | Therapeutical index [7] | LD50 ([6]; po) [mg/kg]
CC(=O)Oc1ccccc1C(=O)O [Acetylsalicylic acid, reference compound] | 180 |  |  |  |  |  |  |  |  |  |  |  |  |  | 
CN(C)CCC=C1c2ccccc2CCc2ccccc21 [Amitriptyline, reference compound] |  | 12 | 18.75 | 65 | 3.46 |  |  |  |  |  |  |  |  |  | 
CCCCCCC1=Nc2cccnc2N(C(=O)CC)N1.Cl [Example 1, 3-n-hexyl-1-propionyl-1,2-dihydropyrido[3,2-e]-as-triazine hydrochloride] |  | 300 | 5 | 300 | 5 | 200 | 7.5 | ~200 | 7.5 | ~400 | about 5 | 1500 |  |  | 
CCC(=O)N1NC(c2ccc(OC)cc2)=Nc2cccnc21 [Example 5, 3-anisyl-1-propionyl-1,2-dihydropyrido[3,2-e]-as-triazine hydrochloride] |  | 80 | 9.4 | 170 | 4.4 | 75 | 10 | ~170 | 4.4 | ~170 | 4.4 | 750 | 52 | 14.4 | 
CCC(=O)N1NC(c2cc(OC)c(OC)c(OC)c2)=Nc2cccnc21.Cl [Example 6, 3-(3',4',5'-trimethoxyphenyl)-1-propionyl-1,2-dihydropyrido[3,2-e]-as-triazine hydrochloride] |  |  |  |  |  | ~155 | 12.9 | ~400 | about 5 | ~350 | 5.7 | 2000 | 215 | 9.3 | 
CCC(=O)N1NC(CCc2ccccc2)=Nc2cccnc21 [Example 7, 3-phenetyl-1-propionyl-1,2-dihydropyrido-[3,2-e]-as-triazine] |  |  |  |  |  |  |  | > 400 | under 5 | > 400 | below 5 | 2000 | > 400 | below 5 | 
CCCCCCC1=Nc2cccnc2N(C(=O)c2cccnc2)N1 [Example 11, 3-n-hexyl-1-nicotinoyl-1,2-dihydropyrido-[3,2-e]-as-triazinedihydrochloride] |  |  |  |  |  |  |  | ~200 | about 10 | 140 | 14.3 |  | ~400 | 5 | 2000
CCCCC1C(=O)N2C(c3ccccc3)=Nc3cccnc3N2C1=O (stereo not shown) [Example 13, 2-butyl-4-phenylpyrazolo[1,2-a]pyrido[3,2-e]-as-triazine-1,3-dione] |  |  |  |  |  | > 400 | below 5 |  |  |  |  |  | > 400 | below 5 | 2000
CCCCCCC1=Nc2cccnc2N(C(=O)c2ccccc2)N1.Cl [Example 18, 3-hexyl-1-benzoyl-1,2-dihydropyrido[3,2-e]-as-triazine hydrochloride] |  | 10 | 38 | 30 | 12.7 | ~70 | 5.4 |  |  | 80 | 5 | 380 | ~38 | 10 | 
CCCC(C)(COC(N)=O)COC(N)=O [Meprobamate, reference compound] |  |  |  |  |  |  |  | 270 | 4.1 | 260 | 4.2 |  |  |  | 
CC(=O)Nc1ccc(O)cc1 [Paracetamol, reference compound] |  |  |  |  |  |  |  |  |  |  |  |  | 180 |  | 
